Data: the supplement of paper PMC10331698
± gives the standard deviation of the averaged measurements.

Tests used:
Assay in all cases: level (log10 ratio to DMSO vehicle control); higher = higher biomarker level / cell amount than vehicle control
[1] = compound: OCCC(F)(F)C(F)(F)C(F)(F)C(F)(F)C(F)(F)C(F)(F)C(F)(F)C(F)(F)F [8:2 Fluorotelomer alcohol]; conditions: 6700 nM; in DMSO
Procedure: (§1)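 BioMAP Diversity Plus panel of 12 human primary cell co-culture systems (3C, 4H, LPS, SAg, BT, BF4T, BE3C, CASM3C, HDF3CGF, KF3CT, MyoF, Mphg). Compounds were added 1 h before stimulation and left for 24 h (MyoF 48 h; BT 72 h for soluble read-outs or 6 d for IgG). Biomarkers were read by ELISA, cytotoxicity by SRB, PBMC viability and proliferation by Alamar Blue. Each well value was divided by the mean of 8 DMSO control wells on the same plate and log10 transformed; duplicate blinded samples were tested at 4 concentrations.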

[2] = compound: C=CC(=O)OCC(F)(F)C(F)(F)C(F)(F)C(F)(F)C(F)(F)C(F)(F)C(F)(F)C(F)F [1H,1H,9H-Perfluorononyl acrylate]; conditions: in DMSO
Procedure: as §1

[3] = compound: OCC(F)(F)C(F)(F)C(F)(F)C(F)(F)C(F)(F)C(F)(F)C(F)(F)C(F)(F)CO [1H,1H,10H,10H-Perfluorodecane-1,10-diol]; conditions: in DMSO
Procedure: as §1

[4] = compound: FC(F)(F)C(F)(F)C(F)(F)C(F)(F)CCI [1H,1H,2H,2H-Perfluorohexyl iodide]; conditions: in DMSO
Procedure: as §1

[5] = compound: O=C(CC(=O)C(F)(F)C(F)(F)C(F)(F)F)c1cccs1 [(Perfluorobutyryl)-2-thenoylmethane]; conditions: in DMSO
Procedure: as §1

[6] = compound: Cc1ccc(S(=O)(=O)OCC(F)(F)C(F)(F)C(F)(F)C(F)(F)C(F)(F)C(F)F)cc1 [1H,1H,7H-Perfluoroheptyl 4-methylbenzenesulfonate]; conditions: in DMSO
Procedure: as §1

[7] = compound: O=P(O)(O)CCC(F)(F)C(F)(F)C(F)(F)C(F)(F)C(F)(F)C(F)(F)F [2-(Perfluorohexyl)ethylphosphonic acid]; conditions: in DMSO
Procedure: as §1

| Test System | level (log10) [1] | level (log10) ([2]; 6700 nM) | level (log10) ([2]; 20000 nM) | level (log10) ([2]; 60000 nM) | level (log10) ([3]; 6700 nM) | level (log10) ([3]; 20000 nM) | level (log10) ([3]; 60000 nM) | level (log10) ([4]; 6700 nM) | level (log10) ([4]; 20000 nM) | level (log10) ([4]; 60000 nM) | level (log10) ([5]; 6700 nM) | level (log10) ([5]; 20000 nM) | level (log10) ([6]; 6700 nM) | level (log10) ([6]; 20000 nM) | level (log10) ([6]; 60000 nM) | level (log10) ([7]; 6700 nM) | level (log10) ([7]; 20000 nM) | level (log10) ([7]; 60000 nM) |
| --- | --- | --- | --- | --- | --- | --- | --- | --- | --- | --- | --- | --- | --- | --- | --- | --- | --- | --- |
| MyoF:MMP-1 | -0.0175 ± 0.011 | -0.001 ± 0.054 | 0.0505 ± 0.0064 | 0.27 ± 0.033 | -0.0415 ± 0.013 | -0.0275 ± 0.012 | 0.284 | -0.0055 ± 0.023 | -0.0045 ± 0.039 | 0.066 ± 0.11 | -0.0565 ± 0.052 | -0.0005 ± 0.018 | -0.0115 ± 0.0035 | 0.0185 ± 0.016 | 0.048 ± 0.014 | 0.008 ± 0.0042 | 0.008 ± 0.0099 | 0.0755 ± 0.052 |
| MyoF:PAI-I | -0.004 ± 0.018 | -0.0225 ± 0.0078 | -0.0345 ± 0.047 | -0.045 ± 0.0099 | -0.0155 ± 0.005 | -0.008 ± 0.0042 | -0.005 | 0.0085 ± 0.0064 | -0.003 ± 0.0071 | 0.0085 ± 0.03 | 0.0095 ± 0.0035 | 0.013 ± 0.0085 | -0.007 ± 0.0085 | -0.0085 ± 0.013 | -0.019 ± 0.013 | -0.0305 ± 0.0092 | -0.0115 ± 0.0064 | 0.0005 ± 0.013 |
| MyoF:SRB | -0.0005 ± 0.015 | -0.0055 ± 0.0078 | -0.016 ± 0.0042 | -0.0725 ± 0.019 | -0.012 | -0.019 ± 0.017 | -0.098 | 0.008 ± 0.0042 | 0.0055 ± 0.012 | 0.004 ± 0.018 | -0.0225 ± 0.022 | -0.0395 ± 0.0035 | -0.004 ± 0.018 | -0.021 ± 0.0085 | -0.024 ± 0.0014 | -0.0075 ± 0.011 | -0.004 ± 0.0071 | -0.007 ± 0.0057 |
| MyoF:TIMP-1 | -0.0435 ± 0.025 | -0.0205 ± 0.0078 | -0.015 ± 0.0085 | -0.008 ± 0.03 | 0.03 ± 0.031 | 0.078 ± 0.04 | 0.052 | 0.019 ± 0.041 | 0.024 ± 0.083 | 0.021 ± 0.12 | -0.042 ± 0.047 | -0.0405 ± 0.015 | -0.0255 ± 0.044 | -0.0575 ± 0.069 | -0.0375 ± 0.07 | -0.035 ± 0.017 | 0.013 ± 0.0042 | 0.028 ± 0.023 |
| MyoF:alpha-SM Actin | -0.021 ± 0.024 | -0.041 ± 0.0014 | -0.075 ± 0.011 | -0.182 ± 0.028 | -0.0025 ± 0.019 | -0.041 ± 0.03 | -0.395 | 0.03 ± 0.064 | 0.0325 ± 0.064 | 0.043 ± 0.034 | -0.0445 ± 0.042 | -0.0865 ± 0.059 | -0.052 ± 0.011 | -0.0625 ± 0.022 | -0.0765 ± 0.019 | 0.037 ± 0.079 | 0.0415 ± 0.067 | 0.0575 ± 0.063 |
| MyoF:bFGF | 0.002 ± 0.018 | 0.012 ± 0.0057 | 0.0155 ± 0.021 | 0.027 ± 0.0014 | -0.007 ± 0.011 | 0.0005 ± 0.00071 | 0.005 | 0.0095 ± 0.021 | 0.0205 ± 0.026 | 0.0285 ± 0.042 | 0.002 ± 0.0028 | -0.0175 ± 0.00071 | -0.0005 ± 0.0021 | 0.012 ± 0.0071 | 0.009 ± 0.017 | -0.0415 ± 0.011 | -0.0285 ± 0.00071 | -0.0255 ± 0.021 |
| lMphg:CCL2/MCP-1 | 0.0165 ± 0.019 | -0.009 ± 0.0099 | -0.025 ± 0.021 | -0.041 ± 0.055 | -0.0125 ± 0.016 | -0.0145 ± 0.005 | -0.653 | -0.028 ± 0.042 | -0.0285 ± 0.0021 | 0.008 ± 0.013 | -0.047 ± 0.031 | -0.27 ± 0.056 | -0.033 ± 0.0014 | -0.0345 ± 0.015 | -0.0055 ± 0.026 | -0.004 ± 0.0071 | 0.01 ± 0.0042 | -0.0105 ± 0.005 |
| lMphg:CCL3/MIP-1alpha | 0.079 ± 0.011 | 0.015 | 0.012 ± 0.023 | 0.061 ± 0.0028 | -0.0375 ± 0.005 | -0.02 ± 0.016 | -0.473 | -0.0185 ± 0.00071 | -0.0515 ± 0.023 | -0.013 ± 0.014 | 0.0225 ± 0.029 | 0.012 ± 0.057 | -0.007 ± 0.0014 | 0.0145 ± 0.0021 | 0.0465 ± 0.033 | 0.035 ± 0.044 | 0.019 ± 0.028 | 0.0315 ± 0.019 |
| lMphg:CD40 | -0.0275 ± 0.0035 | -0.0205 ± 0.005 | -0.022 ± 0.018 | -0.032 ± 0.021 | -0.0285 ± 0.0064 | -0.0695 ± 0.032 | -0.536 | -0.017 ± 0.014 | -0.0245 ± 0.029 | -0.018 ± 0.025 | -0.0105 ± 0.016 | -0.119 ± 0.0071 | -0.009 ± 0.016 | -0.0175 ± 0.0092 | -0.0135 ± 0.005 | -0.0155 ± 0.0021 | -0.0165 ± 0.00071 | -0.012 ± 0.041 |
